Key:
[1] = target: T1, PRMT5 (Homo sapiens, UniProt O14744); assay: PRMT5 biochemical IC50 assay with SAM as cofactor; conditions: PRMT5, SAM as cofactor; read-out: SAM IC50
T1 construct: purchased Viva (custom protein)

[2] = tested on: HAP1 MTAP-deleted cell line; assay: Viability assay, MTAP-deleted cell line; assay type: cell-based; conditions: Homo sapiens, HAP1, viability assay, MTAP-deleted cell line; read-out: HAP1 MTAP deleted viability
Text: Table 1 additionally indicates IC50 values in a viability assay for the MTAP-deleted cell line (column 10), indicating the effect of treatment with compound on cell survival.

[3] = tested on: HAP1 MTAP-intact cell line; assay: SDMA in-cell western assay, HAP1 MTAP-intact; assay type: cell-based; conditions: Homo sapiens, HAP1, SDMA in-cell western, HAP1 MTAP-intact; read-out: MTAP HAP1 intact IC50
Summary of the method: (§1)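 IC50 values come from SDMA signal quantified by in-cell western in two HAP1 lines, one with native MTAP levels and one lacking MTAP.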

[4] = target: T1, PRMT5; assay: PRMT5 biochemical IC50 assay with no cofactor; conditions: PRMT5, no cofactor; read-out: No Cofactor/rel IC50
Text: Table 1 indicates IC50 values (μM) against PRMT5 for exemplary compounds in the presence of SAM as cofactor, with no cofactor, and with MTA as cofactor, respectively (columns 4-6). […] Ki values can be calculated from the IC50 values as described in the Examples section. As detailed in the Examples section, for the assay performed in the presence of SAM, IC50=Ki×1.5 (Ki=IC50/1.5).

[5] = tested on: HAP1 MTAP-deleted cell line; assay: SDMA in-cell western assay, HAP1 MTAP-deleted; assay type: cell-based; conditions: for IC50: Homo sapiens, HAP1, SDMA in-cell western, HAP1 MTAP-deleted, read-out: HAP1 MTAP deleted IC50; for MTAP intact/deleted ratio: IC50 ratio HAP1 MTAP-intact / HAP1 MTAP-deleted, SDMA in-cell western
Summary of the method: as §1

[6] = target: T1, PRMT5; assay: PRMT5 biochemical IC50 assay with MTA as cofactor; conditions: PRMT5, MTA as cofactor; read-out: MTA IC50

T1 sequence (O14744 whole entry): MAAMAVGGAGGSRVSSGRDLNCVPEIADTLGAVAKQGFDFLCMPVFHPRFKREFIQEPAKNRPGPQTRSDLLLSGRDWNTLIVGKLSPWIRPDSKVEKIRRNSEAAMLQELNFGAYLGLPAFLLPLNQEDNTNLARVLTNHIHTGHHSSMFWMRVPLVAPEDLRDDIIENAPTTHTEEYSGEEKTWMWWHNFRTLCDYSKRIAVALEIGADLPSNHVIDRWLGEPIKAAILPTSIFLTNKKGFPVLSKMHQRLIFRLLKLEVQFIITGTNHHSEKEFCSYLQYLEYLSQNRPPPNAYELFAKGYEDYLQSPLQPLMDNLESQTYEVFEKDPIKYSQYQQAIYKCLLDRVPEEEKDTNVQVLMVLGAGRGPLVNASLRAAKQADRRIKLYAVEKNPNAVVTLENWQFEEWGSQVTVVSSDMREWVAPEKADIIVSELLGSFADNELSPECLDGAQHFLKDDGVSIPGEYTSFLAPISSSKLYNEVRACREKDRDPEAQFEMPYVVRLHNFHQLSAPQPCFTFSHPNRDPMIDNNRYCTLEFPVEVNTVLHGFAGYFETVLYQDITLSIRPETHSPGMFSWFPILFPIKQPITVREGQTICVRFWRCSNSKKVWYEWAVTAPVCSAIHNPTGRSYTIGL
T1 sequence (Q9BQA1 whole entry partner): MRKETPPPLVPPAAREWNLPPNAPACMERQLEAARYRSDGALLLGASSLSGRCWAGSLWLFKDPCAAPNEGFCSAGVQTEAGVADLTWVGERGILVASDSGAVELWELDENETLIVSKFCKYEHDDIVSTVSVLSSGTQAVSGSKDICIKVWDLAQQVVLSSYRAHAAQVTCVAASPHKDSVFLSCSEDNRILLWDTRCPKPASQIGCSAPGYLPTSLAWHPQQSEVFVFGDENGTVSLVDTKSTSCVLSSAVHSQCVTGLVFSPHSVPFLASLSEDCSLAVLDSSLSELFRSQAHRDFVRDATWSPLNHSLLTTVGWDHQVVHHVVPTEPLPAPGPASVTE

Row | IC50 [1] | IC50 [3] | IC50 [4] | IC50 [5] | IC50 [6] | Compound | IC50 [2] | MTAP intact/deleted ratio [5]
1 | 50 to 500 nM | > 1000 nM | > 500 nM | 100 to 1000 nM | 50 to 500 nM | NC(=O)c1cncc(NC(=O)C(=O)N2C[C@@H](CC(F)(F)F)CC[C@@H]2c2ccccc2)c1 (racemic) [Compound 342, 5-[[2-Oxo-2-[(2S,5S)-2-phenyl-5-(2,2,2-trifluoroethyl)-1-piperidyl]acetyl]amino]pyridine-3-carboxamide] | > 10000 nM | A (an IC50 ratio greater than or equal to 10 fold)
2 | 50 to 500 nM | > 1000 nM | 50 to 500 nM | < 100 nM | < 50 nM | C[C@@H]1CC[C@@H](c2ccc3sccc3c2)N(C(=O)C(=O)Nc2cncc(C(N)=O)c2)C1 (racemic) [Compound 409, rac-5-[[2-[(2S,5R)-2-(benzothiophen-5-yl)-5-methyl-1-piperidyl]-2-oxo-acetyl]amino]pyridine-3-carboxamide] | 1000 to 10000 nM | A (an IC50 ratio greater than or equal to 10 fold)
3 | 50 to 500 nM | > 1000 nM | > 500 nM | 100 to 1000 nM | 50 to 500 nM | C[C@@H]1CC[C@H](c2ccc(NCC(=O)N(C)C)cc2)N(C(=O)C(=O)Nc2cncc(C(N)=O)c2)C1 (racemic) [Compound 422, 5-[[2-[(2R,5R)-2-[4-[[2-(Dimethylamino)-2-oxo-ethyl]amino]phenyl]-5-methyl-1-piperidyl]-2-oxo-acetyl]amino]pyridine-3-carboxamide] | > 10000 nM | A (an IC50 ratio greater than or equal to 10 fold)
4 | 50 to 500 nM | > 1000 nM | 50 to 500 nM | 100 to 1000 nM | 50 to 500 nM | C[C@@H]1CC[C@H](c2ccc(N[C@@H]3CCN(C)C3=O)cc2)N(C(=O)C(=O)Nc2cncc(C(N)=O)c2)C1 (racemic) [Compound 427, 5-[[2-[(2R,5R)-5-Methyl-2-[4-[[(3R)-1-methyl-2-oxo-pyrrolidin-3-yl]amino]phenyl]-1-piperidyl]-2-oxo-acetyl]amino]pyridine-3-carboxamide] | > 10000 nM | A (an IC50 ratio greater than or equal to 10 fold)
5 | 50 to 500 nM | > 1000 nM | > 500 nM | > 1000 nM | 50 to 500 nM | NC(=O)c1cncc(NC(=O)C(=O)N2CC[C@@H]3CCCC[C@@H]3C2)c1 (racemic) [Compound 429, 5-(2-(octahydroisoquinolin-2(1B)-yl)-2-oxoacetamido)nicotinamide] | > 10000 nM | B (an IC50 ratio greater than or equal to 3 fold but lower than 10 fold)
6 | 50 to 500 nM | > 1000 nM | 50 to 500 nM | < 100 nM | 50 to 500 nM | C[C@@H]1CC[C@@H](c2ccc(N[C@@H]3CCN(C)C3=O)cc2)N(C(=O)C(=O)Nc2cncc(C(N)=O)c2)C1 (racemic) [Compound 430, 5-[[2-[(2S,5R)-5-Methyl-2-[4-[[(3R)-1-methyl-2-oxo-pyrrolidin-3-yl]amino]phenyl]-1-piperidyl]-2-oxo-acetyl]amino]pyridine-3-carboxamide] | 1000 to 10000 nM | A (an IC50 ratio greater than or equal to 10 fold)
7 | 50 to 500 nM | > 1000 nM | 50 to 500 nM | 100 to 1000 nM | 50 to 500 nM | C[C@@H]1CN(C(=O)C(=O)Nc2cncc(C(N)=O)c2)[C@@H](c2ccccc2)C[C@H]1O (racemic) [Compound 459, rac-5-[[2-[(2R,4R,5R)-4-hydroxy-5-methyl-2-phenyl-1-piperidyl]-2-oxo-acetyl]amino]pyridine-3-carboxamide] | > 10000 nM | A (an IC50 ratio greater than or equal to 10 fold)
8 | > 500 nM | > 1000 nM | 50 to 500 nM | > 1000 nM | 50 to 500 nM | C[C@@H]1CC[C@@H](c2ccccc2)N(C(=O)C(=O)Nc2cnc(O)c(C(N)=O)c2)C1 (racemic) [Compound 494, rac-2-hydroxy-5-(2-((2R,5S)-5-methyl-2-phenylpiperidin-1-yl)-2-oxoacetamido)nicotinamide] | > 10000 nM | C (an IC50 ratio of less than 3 fold)
9 | 50 to 500 nM | > 1000 nM | 50 to 500 nM | 100 to 1000 nM | < 50 nM | CC[C@@H]1CCN(C(=O)C(=O)Nc2cncc(C(N)=O)c2)[C@H](c2ccccc2)C1 (racemic) [Compound 497, rac-5-[[2-[(2S,4R)-4-ethyl-2-phenyl-1-piperidyl]-2-oxo-acetyl]amino]pyridine-3-carboxamide] | 1000 to 10000 nM | A (an IC50 ratio greater than or equal to 10 fold)
10 | 50 to 500 nM | > 1000 nM | 50 to 500 nM | < 100 nM | 50 to 500 nM | CNc1ccc([C@@H]2CC[C@@H](C)CN2C(=O)C(=O)Nc2cnc(N)c(C)c2)cc1 (racemic) [Compound 498, N-(6-amino-5-methyl-3-pyridyl)-2-[(2S,5R)-5-methyl-2-[4-(methylamino)phenyl]-1-piperidyl]-2-oxo-acetamide] | < 1000 nM | A (an IC50 ratio greater than or equal to 10 fold)

The remaining lines, values behind:

Row | Compound | IC50 [1] | IC50 [3] | IC50 [4] | IC50 [5] | IC50 [6] | IC50 [2] | MTAP intact/deleted ratio [5]
11 | C[C@@H]1CC[C@@H](c2ccc(F)c(Cl)c2)N(C(=O)C(=O)Nc2cncc(C(N)=O)c2)C1 (racemic) [Compound 338, rac-5-{2-[(2R,5S)-2-(3-Chloro-4-fluorophenyl)-5-methylpiperidin-1-yl]-2-oxoacetamido}pyridine-3-carboxamide] | 50 to 500 nM | > 1000 nM | 50 to 500 nM | < 100 nM | 50 to 500 nM | 1000 to 10000 nM | A (an IC50 ratio greater than or equal to 10 fold)
12 | C[C@@H]1CC[C@@H](c2ccc3c(c2)CCCO3)N(C(=O)C(=O)Nc2cncc(C(N)=O)c2)C1 (racemic) [Compound 341, rac-5-{2-[(2R,5S)-2-(3,4-Dihydro-2H-1-benzopyran-6-yl)-5-methylpiperidin-1-yl]-2-oxoacetamido}pyridine-3-carboxamide] | 50 to 500 nM | > 1000 nM | 50 to 500 nM | < 100 nM | 50 to 500 nM | 1000 to 10000 nM | A (an IC50 ratio greater than or equal to 10 fold)
13 | NC(=O)c1cncc(NC(=O)C(=O)N2C[C@@H](O)CC[C@@H]2c2ccccc2)c1 (racemic) [Compound 349, 5-[[2-[(2R,5S)-5-Hydroxy-2-phenyl-1-piperidyl]-2-oxo-acetyl]amino]pyridine-3-carboxamide] | > 500 nM | > 1000 nM | > 500 nM | > 1000 nM | 50 to 500 nM | > 10000 nM | C* (an IC50 ratio of less than 3 fold)
14 | C[C@@H]1CC[C@@H](c2ccc3c(c2)OCC3)N(C(=O)C(=O)Nc2cncc(C(N)=O)c2)C1 (racemic) [Compound 405, rac-5-{2-[(2R,5S)-2-(2,3-Dihydro-1-benzofuran-6-yl)-5-methylpiperidin-1-yl]-2-oxoacetamido}pyridine-3-carboxamide] | 50 to 500 nM | > 1000 nM | 50 to 500 nM | < 100 nM | 50 to 500 nM | 1000 to 10000 nM | A (an IC50 ratio greater than or equal to 10 fold)
15 | COc1cc(OC)cc([C@@H]2CC[C@@H](C)CN2C(=O)C(=O)Nc2cncc(C(N)=O)c2)c1 (racemic) [Compound 428, rac-5-{2-[(2R,5S)-2-(3,5-Dimethoxyphenyl)-5-methylpiperidin-1-yl]-2-oxoacetamido}pyridine-3-carboxamide] | > 500 nM | > 1000 nM | > 500 nM | 100 to 1000 nM | 50 to 500 nM | > 10000 nM | A (an IC50 ratio greater than or equal to 10 fold)
16 | C[C@@H]1CCN(C(=O)C(=O)Nc2cncc(C(N)=O)c2)[C@H](c2ccccc2)C1 (racemic) [Compound 442, 5-(2-(4-methyl-2-phenylpiperidin-1-yl)-2-oxoacetamido)nicotinamide] | 50 to 500 nM | > 1000 nM | 50 to 500 nM | 100 to 1000 nM | 50 to 500 nM | 1000 to 10000 nM | A (an IC50 ratio greater than or equal to 10 fold)
17 | C[C@@H]1CN(C(=O)C(=O)Nc2cncc(C(N)=O)c2)[C@@H](c2ccccc2)C[C@@H]1O (racemic) [Compound 470, rac-5-[[2-[(2R,4S,5R)-4-hydroxy-5-methyl-2-phenyl-1-piperidyl]-2-oxo-acetyl]amino]pyridine-3-carboxamide] | 50 to 500 nM | > 1000 nM | 50 to 500 nM | 100 to 1000 nM | 50 to 500 nM | > 10000 nM | A (an IC50 ratio greater than or equal to 10 fold)
